Ten molecules from patent US10815276B2, “Cell penetrating peptides and methods of making and using thereof” (Entrada Therapeutics, Inc., priority 2014, dated 2020) can be followed below.

Like-named read-outs stand apart in the source and are kept apart here. Starred links: 1 amine or outer side, 2 acyl side, 3 side chain; linkers in the order of their positions; H or OH if unused. Positions of bridges follow the written chain, without caps; N, C: chain ends. Non-standard residues stand in square brackets, D forms with d. Residues, ends and D or L forms follow the SMILES beside them. Groups on a side chain read outwards from the residue. No end group written: not given here. *: point of attachment. Ala(7-OPO3H2-coumarin-4-yl) = N[C@@H](Cc1cc(=O)oc2cc(OP(=O)(O)O)ccc12)C(=O)O; RhodamineB = CCN(CC)c1ccc2c(-c3ccccc3C(=O)*)c3ccc(=[N+](CC)CC)cc-3oc2c1; Trimesoyl = O=C(c1cc(C(=O)[*:2])cc(C(=O)[*:3])c1)[*:1]; d(pT) = C[C@H](OP(=O)(O)O)[C@@H](N)C(=O)O; 2Nal = N[C@@H](Cc1ccc2ccccc2c1)C(=O)O; Pip = O=C(O)[C@@H]1CCCCN1; Dap = NC[C@H](N)C(=O)O; AEEA = NCCOCCOCC(=O)O; Sar = CNCC(=O)O

One test relates to HEK293 cells. Nature of the test: Live-cell confocal microscopy of internalization. The class given is cell-based, human. Conditions: for Intracellular fluorescence of rhodamine B-labeled peptide: 5 μM peptide, 2 h; for CAP fluorescence in cells (confocal): 5 μM pCAP peptide, 60 min. On the procedure:
To examine the internalization of rhodamine-labeled peptides, 5×10^4 HEK293 cells were plated in a 35 mm glass-bottomed microwell dish (MatTek). […] The cells were gently washed with DPBS twice and imaged on a Visitech Infinity 3 Hawk 2D-array live cell imaging confocal microscope. To detect the internalization of pCAP-containing peptides, HEK293 cells were similarly plated and incubated with the peptide solution (5 μM) at 37° C. for 60 min. After removal of the medium, the cells were gently washed with DPBS containing sodium pervanadate (1 mM) twice and incubated for 10 min in DPBS containing 5 μM nuclear staining dye DRAQS. The resulting cells were washed with DPBS twice and imaged on a spinning disk confocal microscope (UltraView Vox CSUX1 system). To monitor GFP internalization, 5×10^4 HEK293 cells were seeded in a 35 mm glass-bottomed microwell dish and cultured overnight. Cells were treated with cFΦR4-S-S-GFP (1 μM) at 37° C. for 2 h. After removal of the medium, the cells were incubated in DPBS containing 5 μM DRAQS for 10 min. The cells were washed with DPBS twice and imaged on a Visitech Infinity 3 Hawk 2D-array live cell imaging confocal microscope.

Test [1] deals with HeLa cells. Nature of the test: MTT proliferation assay with Pin1 inhibitors. It counts as cell-based, human. To be noted: MTT. On the procedure:
HeLa cells (100 μL/each well, 5×10^4 cells/mL) were seeded in a 96-well culture plate and allowed to grow overnight in DMEM supplemented with 10% FBS. […] After that, 10 μL of a MTT stock solution (5 mg/mL) was added into each well. The plate was incubated at 37° C. for 4 h and 100 μL of SDS-HCl solubilizing solution was added into each well, followed by thorough mixing. The plate was incubated at 37° C. overnight and the absorbance of the formazan product was measured at 570 nm on a Molecular Devices Spectramax M5 plate reader. Each experiment was performed in triplicates and the cells untreated with peptide were used as control.
On the technique in general: Formazan colour is commonly taken as a measure of viable cells.

Test [2] deals with T1, Pin1 (Homo sapiens, UniProt Q13526, S16A/Y23A).
T1 construct: The full-length human S16A/Y23A mutant Pin1 was expressed and purified from E. coli; made in house
Description: Pin1 binding by FA (FITC-labeled peptides).

The test system of test [3] is HeLa cells. Description: Cellular uptake by flow cytometry. The class given is cell-based, human. Conditions: 5 μM FITC-labeled peptide, 2 h. How it is done:
The cellular uptake efficiency of peptide 37, peptide 1, and a previously reported membrane-impermeable monocyclic Pin1 inhibitor (Table 18, peptide 46) was assessed by incubating HeLa cells with the FITC-labeled peptides (5 μM) for 2 h and quantifying the total intracellular fluorescence by flow cytometry analysis. […] By contrast, cells treated with peptides 1 and 37 gave MFI values of 2562 and 8792, respectively. Thus, peptide 37 is internalized by HeLa cells ˜4-fold more efficiently than peptide 1. Presumably, the negative charged phosphate group of peptide 1 interacted electrostatically with the positively charged CPP motif and reduced the cellular uptake efficiency of the latter.
(In general: Flow cytometry measures light scatter and fluorescence of single cells or particles in a stream.)

Test [4] deals with HeLa cells. To be noted: MTT.
Description: The effect of peptide 37 on the growth of HeLa cells was examined by using the MTT cell viability assay.
Test [5] relates to HeLa cells. Description: Cytoplasmic delivery of pCAP-containing peptides, flow cytometry. To be noted: 10 μM peptide; for Mean fluorescence intensity (MFI) of CAP: 2 h.
Test [6] deals with HeLa cells. Description: Western blot of PML protein level. It counts as cell-based, human. To be noted: 0.2-5 μM. On the procedure: FIGS. 38A, 38B, 38C, and 38D display cellular activity of peptide 37. (FIG. 38A) Cellular uptake of peptides 1, 37, and 46 (5 μM) by HeLa cells as analyzed by flow cytometry. MFI, mean fluorescence intensity; none, untreated cells (no peptide). (FIG. 38B) Anti-proliferative effect of peptides 37, 46, and 47 on HeLa cells as measured by MTT assay. (FIG. 38C) Western blots showing the effect of peptides 1, 37 and 47 on the protein level of PML in HeLa cells. β-Actin was used as loading control. (FIG. 38D) Quantification of western blot results from (FIG. 38C). Data reported were after background subtraction and represent the mean±SD from 3 independent experiments.
Finally, to ascertain that Pin1 is the molecular target of peptide 37 in vivo, the intracellular protein level of a well-established Pin1 substrate, […] (PML), was examined by western blot analysis. Pin1 negatively regulates the PML level in a phosphorylation-dependent manner and inhibition of Pin1 activity is expected to stabilize PML and increase its intracellular level. […] The effect was already significant at 0.2 μM inhibitor (1.8-fold increase in the PML level) and plateaued at ˜1 μM (3.3-fold increase). Again, bicyclic peptide 47 had no effect under the same conditions, while peptide 1 (the positive control, at 5 μM) increased the PML level by 3.1-fold.
(Immunoblotting shows a protein as a band on a membrane.)

For test [7], the target named is T1, Pin1. Description: Fluorescence anisotropy binding to Pin1. To be noted: FITC-labeled peptide, FA analysis. On the procedure: The gene coding for the catalytic domain of PTP1B (amino acids 1-321) was amplified by the polymerase chain reaction using PTP1B cDNA as template and oligonucleotides 5′-[…]-3′ and 5′-[…]-3′ as primers. […] Expression and purification of the ybbR-tagged PTP1B were carried out as previously described (Ren, L et al. Biochemistry 2011, 50, 2339-2356). […] The reaction mixture was passed through a G-25 fast-desalting column equilibrated in 30 mM HEPES, pH 7.4, 150 mM NaCl to remove any free dye molecules. The full-length human S16A/Y23A mutant Pin1 was expressed and purified from E. coli as previously described (Liu, T et al. J. Med. Chem. 2010, 53, 2494-2501).
FA experiments were carried out by incubating 100 nM FITC-labeled peptide with varying concentrations of protein in 20 mM HEPES (pH 7.4), 150 mM NaCl, 2 mM magnesium acetate, and 0.1% bovine serum albumin (BSA) for 2 h at room temperature. The FA values were measured on a Molecular Devices Spectramax M5 plate reader, with excitation and emission wavelengths at 485 and 525 nm, respectively. Equilibrium dissociation constants (KD) were determined by plotting the FA values as a function of protein concentration and fitting the curve to the following equation:
[formula] where Y is the FA value at a given protein concentration x, L is the peptide concentration, Qb/Qf is the correction factor for fluorophore-protein interaction, Amax is the maximum FA value when all of the peptides are bound to protein, while Amin is the minimum FA value when all of the peptides are free. FA competition assay was performed by incubating 100 nM FITC-labeled Pin1 inhibitor 5 with 1 μM Pin1, followed by the addition of 0-5 μM unlabeled inhibitor. The FA values were measured similarly on a pate reader. IC50 values were obtained by plotting the FA values against the competitor concentration and curve fitting using the four-parameter dose-response inhibition equation (Prism 6, GraphPad).

Consider “cyclo(FΦRRRRQ)-AAAAA-K(Rho) (cyclo(F[2Nal]RRRRQAAAAAK(RhodamineB)); not fully specified (C-terminus, bridges); printed as cyclo(FΦRRRRQ)-AAAAA-K(Rho)) [cFΦR4-A5]”, for which, in the test with HEK293 cells, the “Intracellular fluorescence of rhodamine B-labeled peptide” value was “both punctuate and diffuse fluorescence”.

Consider `C[C@H](OP(=O)(O)O)[C@H]1NC(=O)CN(C)C(=O)[C@@H](C)NC(=O)[C@H](CCC(=O)N[C@@H](CCCCN)C(N)=O)NC(=O)[C@H](Cc2ccc(O)cc2)NC(=O)[C@H](Cc2ccc3ccccc3c2)NC(=O)[C@@H]2CCCCN2C1=O` [Peptide 46, cyclo(D-Ala-Sar-D-pThr-Pip-Nal-Tyr-Gln)-Lys, reference compound] (cyclo([dA][Sar][d(pT)][Pip][2Nal]YE([Lys-NH2])); ring closure inferred), for which the “Effect on cell growth” value is “no effect” with HeLa cells [1] and “neither peptide 46 nor 47 had any effect” with HeLa cells [4]. For the same molecule, the dissociation constant (Kd) (as a rule, the concentration at which binding is half-saturated) on Pin1 [2] was found to be 240 ± 40 nM. Moreover, the “Mean fluorescence intensity (MFI)” value in the test with HeLa cells [3] is reported as 193.

“Ac-DE(pCap)LI-NH2 (Ac-DE[Ala(7-OPO3H2-coumarin-4-yl)]LI-NH2; SMILES CC[C@H](C)[C@H](NC(=O)[C@H](CC(C)C)NC(=O)[C@H](Cc1cc(=O)oc2cc(OP(=O)(O)O)ccc12)NC(=O)[C@H](CCC(=O)O)NC(=O)[C@H](CC(=O)O)NC(C)=O)C(N)=O) [untagged PCP, reference compound]”: the “CAP fluorescence in cells (confocal)” value in the test with HEK293 cells is on record as “failed to enter cells”. In addition, in the test on HeLa cells [5], the “Mean fluorescence intensity (MFI) of CAP” value worked out at 30 AU.

On to “RKKRRQRRR-miniPEG-DE(pCAP)LI (RKKRRQRRR[AEEA]DE[Ala(7-OPO3H2-coumarin-4-yl)]LI) [Tat-PCP, reference compound]”, for which the “CAP fluorescence in cells (confocal)” value with HEK293 cells is recorded as “weak fluorescence”. Moreover, the “Mean fluorescence intensity (MFI) of CAP” value in the test on HeLa cells [5] turned out to be 290 AU.

In the case of “cyclo(FΦRRRRQ)-miniPEG-DE(pCAP)LI (cyclo(F[2Nal]RRRRQ[AEEA]DE[Ala(7-OPO3H2-coumarin-4-yl)]LI); not fully specified (C-terminus, bridges); printed as cyclo(FΦRRRRQ)-miniPEG-DE(pCAP)LI) [cFΦR4-PCP]”, the “CAP fluorescence in cells (confocal)” value in the test with HEK293 cells is on record as “diffuse blue fluorescence throughout the cell”. In the test on HeLa cells [5], the “Mean fluorescence intensity (MFI) of CAP” value is recorded as 3510 AU. Besides, in the test on HeLa cells [5] (PTP inhibitor sodium pervanadate), the “MFI of CAP in the presence of sodium pervanadate” value turned out to be 70 AU.

With “RQIKIWFQNRRMKWKK-miniPEG-DE(pCAP)LI (RQIKIWFQNRRMKWKKXDEXLI; miniPEG linker; pCAP residue; (17)..(17) 8-amino-3,6-dioxaoctanoic acid; (20)..(20) phosphocoumaryl amino propionic acid) [Antp-PCP, reference compound]”, the “CAP fluorescence in cells (confocal)” value with HEK293 cells is listed as “weak fluorescence”. For the same molecule, the “Mean fluorescence intensity (MFI) of CAP” value in the test with HeLa cells [5] is on record as 400 AU.

Regarding “RRRRRRRRR-miniPEG-DE(pCAP)LI (RRRRRRRRRXDEXLI; miniPEG linker, pCAP residue; (10)..(10) 8-amino-3,6-dioxaoctanoic acid; (13)..(13) phosphocoumaryl amino propionic acid) [Peptide R9-PCP, reference compound]”, the “CAP fluorescence in cells (confocal)” value with HEK293 cells is reported as “weak fluorescence”. For the same molecule, in the test with HeLa cells [5], the “Mean fluorescence intensity (MFI) of CAP” value turned out to be 960 AU.

In the case of “cyclo(FΦRRRRQ)-RRRRR-K(Rho) (cyclo(F[2Nal]RRRRQRRRRRK(RhodamineB)); not fully specified (C-terminus, bridges); printed as cyclo(FΦRRRRQ)-RRRRR-K(Rho)) [cFΦR4-R5]”, the “Intracellular fluorescence of rhodamine B-labeled peptide” value in the test on HEK293 cells is “both punctuate and diffuse fluorescence”.

Take “bicyclo[Tm-(D-Ala-Sar-D-Thr-D-Ala-Nal-Arg-Ala-D-Ala)-Dap-(Phe-Nal-Arg-Arg-Arg-Arg-Dap)]-Lys [Peptide 47]”: the “KD (μM)” value with Pin1 [2] (FITC-labeled peptide, FA) is recorded as “No”. Besides, the “Effect on the PML level” value in the test with HeLa cells [6] is listed as “no effect”. Also, the “Effect on cell growth” value in the test with HeLa cells [4] was “neither peptide 46 nor 47 had any effect”.

Turning to `C[C@@H]1NC(=O)[C@H](CCCNC(=N)N)NC(=O)[C@H](Cc2ccc3ccccc3c2)NC(=O)[C@@H]2CCCCN2C(=O)[C@@H](CC(=O)O)NC(=O)CN(C)C(=O)[C@@H]2CCCN2C(=O)c2cc3cc(c2)C(=O)NC[C@@H](C(=O)N[C@@H](CCCCN)C(N)=O)NC(=O)[C@H](CCCNC(=N)N)NC(=O)[C@H](CCCNC(=N)N)NC(=O)[C@H](CCCNC(=N)N)NC(=O)[C@H](CCCNC(=N)N)NC(=O)[C@H](Cc2ccc4ccccc4c2)NC(=O)[C@H](Cc2ccccc2)NC(=O)[C@H](CNC3=O)NC1=O` [Peptide 9, bicyclo[Tm-(Pro-Sar-D-Asp-Pip-Nal-Arg-Ala)-Dap-(Phe-Nal-Arg-Arg-Arg-Arg-Dap)]-Lys] (P[Sar][dD][Pip][2Nal]RA[Dap]F[2Nal]RRRR[Dap]K-NH2; linker N-8-15 via Trimesoyl; C-terminus assumed), the KD result on Pin1 [7] is “abolished Pin1 inhibitory activity”. Also, in the test with HeLa cells [1], the “Effect on cell growth” value is recorded as “no effect”.
